The text below walks through data of paper PMC9995496, “A screen for MeCP2-TBL1 interaction inhibitors using a luminescence-based assay” (Scientific Reports, 2023).

Where a name gives a salt, the structure may show the parent alone.

The first assay relates to PRKACA-PRKAR2A interaction (SmBiT-PRKACA / LgBiT-PRKAR2A), protein kinase A. Also noted: NanoLuc complementation counter-screen in cell extract, PRKACA with PRKAR2A, loss of luminescence, detects NanoLuc interference. The settings on record: 0.5 h, 20 µM; inhibitor.
On to `COc1ccc(N(C(=O)Oc2c(C)cccc2C)c2ccnc(Nc3ccc(N4CCN(C)CC4)cc3)n2)c(OC)c1` [UM0142819:01, WH-4-023], for which the “Inh (PKA)” value is 37.82%.
On to `CC(C)OC(=O)[C@H](C)N[P@](=O)(CO[C@H](C)Cn1cnc2c(N)ncnc21)Oc1ccccc1` [UM0142821:01, GS-7340], for which the “Inh (PKA)” value is reported as 0.4788.
With `COC1=C[C@@H]2[C@@H]3Cc4ccc(OC)c(O)c4[C@]2(CCN3C)CC1=O` [UM0142862:01, Sinomenine Hydrochloride], the “Inh (PKA)” value is 0.8653%.

Still in this assay, the particulars now being: counter-screen for NanoLuc interference, 0.5 h, 20 µM, inhibitor, Inh (PKA).
In the case of `N[C@@H](CC(=O)N1CCn2c(nnc2C(F)(F)F)C1)Cc1cc(F)c(F)cc1F` [UM0142834:01, Sitagliptin (phosphate)], the “Inh (PKA)” value is reported as -0.1445%.

The assay is the same for the next values; noted with them: counter-screen for NanoLuc interference; 0.5 h, 20 µM; inhibitor.
`COc1ccc(N(C)c2nc(C)nc3ccccc23)cc1` [UM0142800:01, MPC 6827 hydrochloride]: the “Inh (PKA)” value is given as 22.54%.
Regarding `CCc1c(-c2ccccc2)c(-c2ccccc2)nn1-c1ccccc1-c1cccc(OCC(=O)O)c1` [UM0142801:01, BMS 309403], the “Inh (PKA)” value turned out to be 85.65%.
Take `Nc1nccc(Oc2ccc3c(C(=O)Nc4cccc(C(F)(F)F)c4)cccc3c2)n1` [UM0142802:01, BAW2881 (NVP-BAW2881)]: the “Inh (PKA)” value came to 7.673%.
Still for that read-out and setting: as for `C[C@@H]1CC(=O)Nc2cccc(-c3ccc4c(c3)c(-c3cnn(C)c3)nn4C)c2N1` [UM0142803:01, CPI-637], the figure is 3.742%.
Regarding `Cc1ccc(C(=O)OCc2ccc([C@@H](CN)C(=O)Nc3ccc4cnccc4c3)cc2)c(C)c1` [UM0142804:01, Netarsudil (AR-13324)], the “Inh (PKA)” value worked out at 32.51%.
The same measure, in the same setting: the figure for `Oc1cc(CNC(=S)/C=C/c2cc(O)c(O)c(Br)c2)cc(O)c1O` [UM0142805:01, NT157] is 30.97%; for `COc1ccc(Cn2c3ncnc4c(ncn4Cc4ccc(OC)cc4)c-3nc2=O)cc1` [UM0142806:01, RK-33] it is 7.723%; for `CN(C)CCCOc1ccc(-c2ccc3ncc4c(c3c2)n(C2CCOCC2)c(=O)n4C)cn1` [UM0142808:01, AZD0156] it is -0.519%.
Still for that read-out and setting: as for `O=C(O)C(O)C(O)C(=O)O` (centres unmarked) [UM0142810:01, Sodium tartrate], the figure is 0.7692%.
Consider `c1c[nH]cn1` [UM0142811:01, Imidazole], for which the “Inh (PKA)” value is 0.004759%.
Take `Nc1ccc(C(=O)O)cc1` [UM0142813:01, 4-Aminobenzoic acid]: the “Inh (PKA)” value is listed as -1.147%.
On the same count and under the same terms, as for `O[C@H]1[C@H](O)[C@@H](O)[C@H](O)[C@@H](O)[C@H]1O` [UM0142814:01, myo-Inositol], the figure is -0.9273%; as for `CCCCCCCCCCCCCC(=S)NCCCC[C@H](NC(=O)OCc1ccccc1)C(=O)Nc1ccccc1` [UM0142815:01, Thiomyristoyl], -1.991%; as for `CC(C)(O)c1coc(S(=O)(=O)NC(=O)Nc2c3c(cc4c2CCC4)CCC3)c1` [UM0142816:01, MCC950 sodium], -1.906%.
Regarding `Cc1c(CN2CCN(S(C)(=O)=O)CC2)sc2c(N3CCOCC3)nc(-c3cnc(N)nc3)nc12` [UM0142817:01, GNE-477], the “Inh (PKA)” value was found to be 0.346%.
Same read-out and setting: as for `CCCCNc1ncc2c(-c3ccc(CN4CCN(C)CC4)cc3)cn([C@H]3CC[C@H](O)CC3)c2n1` [UM0142820:01, UNC2025], the figure is 23.55%.
Regarding `CCS(=O)(=O)N1CCN(c2ccc(Nc3ncc(C(N)=O)c(NC4CC4)n3)cc2)CC1` [UM0142822:01, Cerdulatinib (PRT062070)], the “Inh (PKA)” value is recorded as 16.29%.
`C=C(Cc1ccccc1Cl)C(=O)OCC` [UM0142823:01, INF39]: the “Inh (PKA)” value stood at 8.84%.
In the case of `CC1=C(CSC(=S)N2CCCCC2)C(=O)c2ccccc2C1=O` [UM0142824:01, PKM2 inhibitor(compound 3k)], the “Inh (PKA)” value is 18.26%.
On the same count and under the same terms, the figure for `N#Cc1cnc(Nc2cc(NC[C@H]3CNCCO3)c(C(F)(F)F)cn2)cn1` [UM0142825:01, CCT245737] is 4.036%.
As for `NS(=O)(=O)c1nn2cc(-c3ccccc3)nc2s1` [UM0142826:01, AEG 3482], the “Inh (PKA)” value is given as 8.076%.
The same measure, in the same setting: as for `O=C(c1ccc(Cl)cc1)N(Cc1ccccc1)C1CCCCC1` [UM0142831:01, FPS-ZM1], the figure is 22.08%; as for `O=C(O)C1=C(CSc2nnnn2CS(=O)(=O)O)CS[C@@H]2[C@H](NC(=O)[C@H](O)c3ccccc3)C(=O)N12` [UM0142832:01, Cefonicid (sodium salt)], 2.197%; as for `Cc1cc(C)nc(NC(=S)N2CCN(Cc3ccc(C(F)(F)F)cc3)CC2)c1` [UM0142833:01, NCT-503], 4.726%.
In the case of `O=C(CCCCCCC(=O)Nc1ccc(I)cc1)NO` [UM0142835:01, 4-iodo-SAHA], the “Inh (PKA)” value worked out at 5.197%.
Regarding `CCCCCCCCCc1ccc(B(O)O)cc1` [UM0142836:01, 4-(n-nonyl) Benzeneboronic Acid], the “Inh (PKA)” value was -0.3283%.
On to `Cc1snnc1-c1ccccc1` [UM0142838:01, 4-phenyl-5-methyl-1,2,3-Thiadiazole], for which the “Inh (PKA)” value was determined as 0.1553%.
The same measure, in the same setting: the figure for `CC(C)(C)C(O)/C(=C\c1ccc(Cl)cc1)n1cncn1` (centres unmarked) [UM0142839:01, Uniconazole] is 40.56%; for `CC(=O)O[C@H]1C[C@@]2(C)[C@@H](C[C@@H](O)[C@H]3[C@@]4(C)CC[C@@H](O)[C@@H](C)[C@@H]4CC[C@@]32C)/C1=C(\CCC=C(C)C)C(=O)O` [UM0142840:01, Fusidic Acid (sodium salt)] it is 1.888%; for `COc1cc(/C=C/CO)cc(OC)c1O[C@@H]1O[C@H](CO)[C@@H](O)[C@H](O)[C@H]1O` [UM0142842:01, Syringin] it is -0.4642%.
On the same count and under the same terms, the figure for `C[C@H]1[C@H](C)CC[C@]2(C(=O)O)CC[C@]3(C)C(=CC[C@@H]4[C@@]5(C)C[C@@H](O)[C@H](O)[C@@](C)(CO)[C@@H]5CC[C@]43C)[C@H]12` [UM0142843:01, Asiatic acid] is 9.304%.
On the same count and under the same terms, as for `C[C@H]1[C@H](C)CC[C@]2(C(=O)O[C@@H]3O[C@H](CO[C@@H]4O[C@H](CO)[C@@H](O[C@@H]5O[C@H](C)[C@H](O)[C@@H](O)[C@H]5O)[C@H](O)[C@H]4O)[C@@H](O)[C@H](O)[C@H]3O)CC[C@]3(C)C(=CC[C@@H]4[C@@]5(C)C[C@@H](O)[C@H](O)[C@@](C)(CO)[C@@H]5CC[C@]43C)[C@H]12` [UM0142844:01, Asiaticoside], the figure is -0.7873%.
Take `O=C1C[C@@H](c2ccc(O)cc2)Oc2cc(O)cc(O)c21` [UM0142845:01, Naringenin]: the “Inh (PKA)” value worked out at 6.247%.
Same read-out and setting: the figure for `C=C1CC[C@@H]2[C@](C)(CO)[C@H](O)CC[C@@]2(C)[C@H]1C/C=C1\C=COC1=O` [UM0142846:01, Dehydroandrographolide] is 12.37%; for `CC(C)=CCCC(C)(O)C1CCC2(C)C1C(O)CC1C3(C)CCC(O)C(C)(C)C3CCC12C` (centres unmarked) [UM0142847:01, Protopanaxdiol] it is 2.916%.
On to `OC[C@H]1NC[C@H](O)[C@@H](O)[C@@H]1O` [UM0142849:01, 1-Deoxynojirimycin], for which the “Inh (PKA)” value was 1.08%.
The same measure, in the same setting: as for `C[C@H](CCC(=O)O)[C@H]1CC[C@H]2[C@@H]3CC[C@@H]4C[C@H](O)CC[C@]4(C)[C@H]3C[C@H](O)[C@]12C` [UM0142850:01, Deoxycholic acid], the figure is 5.283%; as for `O=C(O)c1cc(O)c2c(c1)[C@@H]([C@H]1c3cc(C(=O)O)cc(O)c3C(=O)c3c(O[C@@H]4O[C@H](CO)[C@@H](O)[C@H](O)[C@H]4O)cccc31)c1cccc(O[C@@H]3O[C@H](CO)[C@@H](O)[C@H](O)[C@H]3O)c1C2=O` [UM0142851:01, Sennoside B], 36.22%; as for `O=C(O)c1cc(O)c2c(c1)[C@H]([C@H]1c3cc(C(=O)O)cc(O)c3C(=O)c3c(O[C@@H]4O[C@H](CO)[C@@H](O)[C@H](O)[C@H]4O)cccc31)c1cccc(O[C@@H]3O[C@H](CO)[C@@H](O)[C@H](O)[C@H]3O)c1C2=O` [UM0142852:01, Sennoside A], 33.8%.
Still for that read-out and setting: the figure for `C[C@H]1[C@@H](O)O[C@@H]2O[C@@]3(C)CC[C@H]4[C@H](C)CC[C@@H]1[C@@]24OO3` [UM0142853:01, Dihydroartemisinin] is 0.1421%; for `CC1(C)[C@@H](O[C@H]2O[C@H](C(=O)O)[C@@H](O)[C@H](O)[C@H]2O[C@@H]2O[C@H](C(=O)O)[C@@H](O)[C@H](O)[C@H]2O)CC[C@]2(C)[C@H]3C(=O)C=C4[C@@H]5C[C@@](C)(C(=O)O)CC[C@]5(C)CC[C@@]4(C)[C@]3(C)CC[C@@H]12` [UM0142854:01, Glycyrrhizic acid] it is 4.863%; for `O=C1c2c(O)cc(O)cc2O[C@H](c2ccc(O)c(O)c2)[C@H]1O` [UM0142856:01, Taxifolin] it is 0.9672%.
Same read-out and setting: as for `Cc1coc2c1C(=O)C(=O)c1c-2ccc2c(C)cccc12` [UM0142857:01, Tanshinone I], the figure is 27.32%; as for `O=C1c2c(O)cc(O)cc2O[C@H](c2cc(O)c(O)c(O)c2)[C@H]1O` [UM0142858:01, Dihydromyricetin], 4.571%.
Turning to `C=C1CC[C@@H]2[C@](C)(CO)[C@H](O)CC[C@@]2(C)[C@@H]1C/C=C1/C(=O)OC[C@H]1O` [UM0142859:01, Andrographolide], the “Inh (PKA)” value came to 1.527%.
In the case of `COc1ccc([C@@H]2CC(=O)c3c(O)cc(O)cc3O2)cc1O` [UM0142860:01, Hesperitin], the “Inh (PKA)” value was 3.061%.
The same measure, in the same setting: as for `CCc1c2c(nc3ccc(O)cc13)-c1cc3c(c(=O)n1C2)COC(=O)[C@]3(O)CC` [UM0142861:01, 7-Ethyl-10-hydroxycamptothecin], the figure is 8.347%; as for `O=c1cc(-c2ccc(O)c(-c3c(O)cc(O)c4c(=O)cc(-c5ccc(O)cc5)oc34)c2)oc2cc(O)cc(O)c12` [UM0142863:01, Amentoflavone], 47.02%; as for `CCCC[N+]1(C)[C@@H]2C[C@@H](OC(=O)[C@H](CO)c3ccccc3)C[C@H]1[C@@H]1O[C@@H]12` (some centres unmarked) [UM0142864:01, Scopolamine butylbromide], 0.502%.
